Results: the NIST ThermoML archive (doi:10.1016/j.fluid.2015.08.029)

Experiment: xn = mol fraction of the nth substance listed
Settings: Fluid (supercritical or subcritical phases), Buoyancy - hydrostatic balance with magnetic suspension - one sinker, x2 = 0.95

C [methane] + O=C=O
Settings	mass density [kg/m3]
305.16 K, 9767.1 kPa	617.141
305.16 K, 9967.5 kPa	629.726
305.17 K, 9370.3 kPa	584.841
306.1 K, 7971 kPa	291.729
306.14 K, 8569.3 kPa	407.211
306.15 K, 8769.4 kPa	456.137
306.15 K, 9367.9 kPa	559.009
306.15 K, 9567.4 kPa	580.099
306.15 K, 9767.6 kPa	597.343
306.16 K, 9168.1 kPa	532.249
306.17 K, 8170.1 kPa	321.108
306.17 K, 8969 kPa	498.232
306.17 K, 9967.5 kPa	611.559
306.18 K, 8370.6 kPa	359.348
307.11 K, 7970.8 kPa	279.021
307.15 K, 8769.2 kPa	417.545
307.15 K, 9369.4 kPa	530.475
307.15 K, 9968.3 kPa	592.558
307.16 K, 8569.4 kPa	373.594
307.16 K, 9769.9 kPa	575.499
307.17 K, 8370.1 kPa	335.111
307.17 K, 9567.7 kPa	554.846
307.18 K, 8170.2 kPa	303.687
307.18 K, 8969.6 kPa	460.414
307.19 K, 9168.1 kPa	498.151
308.14 K, 7971.8 kPa	268.365
308.15 K, 8969.6 kPa	425.843
308.16 K, 8773.5 kPa	385.91
308.16 K, 9568.1 kPa	527.899
308.16 K, 9772 kPa	552.011
308.16 K, 9967.3 kPa	570.979
308.17 K, 8171.2 kPa	290.106
308.17 K, 8372.6 kPa	316.707
308.17 K, 9169 kPa	464.65
308.17 K, 9368.5 kPa	499.11
308.18 K, 8570.3 kPa	347.84
309.13 K, 7972 kPa	259.723
309.15 K, 8969.7 kPa	395.876
309.15 K, 9967.3 kPa	548.766
309.16 K, 9568.6 kPa	499.83
309.16 K, 9768.9 kPa	526.36
309.17 K, 8171 kPa	279.024
309.17 K, 8570.8 kPa	328.632
309.17 K, 8772.2 kPa	360.359
309.17 K, 9170.1 kPa	432.906
309.17 K, 9369 kPa	468.272
309.18 K, 8371.4 kPa	301.81
310.13 K, 7971.6 kPa	252.206
310.15 K, 9168.8 kPa	404.887
310.15 K, 9768.4 kPa	500.279
310.16 K, 9368.7 kPa	438.984
310.17 K, 8169.9 kPa	269.525
310.17 K, 8371.3 kPa	289.994
310.17 K, 8570.5 kPa	313.293
310.17 K, 8969.4 kPa	370.784
310.17 K, 9568.2 kPa	470.935
310.17 K, 9969.4 kPa	524.504
310.18 K, 8771.3 kPa	340.177
311.13 K, 7972.7 kPa	245.539
311.15 K, 8969.4 kPa	351.047
311.16 K, 9169.2 kPa	380.674
311.17 K, 8170.7 kPa	261.395
311.17 K, 8372.1 kPa	279.845
311.17 K, 8571.3 kPa	300.517
311.17 K, 9768.1 kPa	473.276
311.17 K, 9967.8 kPa	499.737
311.18 K, 9568.6 kPa	443.32
311.19 K, 8770.5 kPa	323.691
311.19 K, 9369 kPa	411.617
312.13 K, 7972.4 kPa	239.656
312.17 K, 8771.1 kPa	310.807
312.17 K, 9568.6 kPa	418.783
312.17 K, 9768.9 kPa	448.071
312.17 K, 9967.7 kPa	475.106
312.18 K, 8571.5 kPa	289.726
312.18 K, 9169.8 kPa	360.525
312.19 K, 8172.7 kPa	254.332
312.19 K, 8372.2 kPa	270.995
312.19 K, 8970.5 kPa	334.208
312.19 K, 9369.6 kPa	388.871
313.14 K, 7973.3 kPa	234.195
313.17 K, 8571.8 kPa	280.559
313.17 K, 8771.6 kPa	299.532
313.17 K, 8970.6 kPa	320.608
313.17 K, 9170.2 kPa	344.172
313.17 K, 9369.7 kPa	369.68
313.17 K, 9768.4 kPa	424.626
313.18 K, 8171.5 kPa	247.96
313.18 K, 8372.5 kPa	263.421
313.18 K, 9569.1 kPa	396.668
